Measured values reported in PubChem BioAssay AID342 (DTP/NCI, 2004).
“And” between values parts separate entries of the source, which are not always exact repeats. Identical values can stand only once.

Test system: Swiss mice, Sarcoma 180 sc, mean tumor weight T/C
Test: NCI In Vivo Anticancer Drug Screen. Data for tumor model Sarcoma 180 (subcutaneous) in Swiss mice
Details: endpoint: mean tumor weight, higher = larger tumour
Outline: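 T/C ratio: treated over vehicle-treated controls, measuring survival or tumor size in transplanted-tumor mice.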

[1] = dose: 105.0 mg/kg/injection, schedule: Q01DX007 (ip), vehicle: carboxymethylcellulose (CMC)
[2] = dose: 25.0 mg/kg/injection, schedule: Q01DX007 (ip), vehicle: carboxymethylcellulose (CMC)
[3] = dose: 100.0 mg/kg/injection, schedule: Q01DX007 (ip), vehicle: carboxymethylcellulose (CMC)
[4] = dose: 10.0 mg/kg/injection, schedule: Q01DX007 (sc), vehicle: steriod suspending solution

For `C=CCNc1ccc(C)cc1`, the T/C (dose: 30.0 mg/kg/injection, schedule: Q01DX007 (ip), vehicle: carboxymethylcellulose (CMC)) was 72 % of control and 88 % of control, the T/C (dose: 55.0 mg/kg/injection, schedule: Q01DX007 (ip), vehicle: carboxymethylcellulose (CMC)) was 86 % of control and the T/C (dose: 69.0 mg/kg/injection, schedule: Q01DX007 (ip), vehicle: carboxymethylcellulose (CMC)) was 109 % of control. For the same compound, the T/C (dose: 83.0 mg/kg/injection, schedule: Q01DX007 (ip), vehicle: carboxymethylcellulose (CMC)) was 76 % of control, the T/C [1] was 76 % of control and 83 % of control and the T/C (dose: 125.0 mg/kg/injection, schedule: Q01DX007 (ip), vehicle: carboxymethylcellulose (CMC)) was 26 % of control. For the same compound, the T/C (dose: 157.0 mg/kg/injection, schedule: Q01DX007 (ip), vehicle: carboxymethylcellulose (CMC)) was 94 % of control.

In the case of `COc1cc2c3c(c4ccc(OC)c(OC)c4c2cc1OC)CN1CCC[C@@H]1C3`, the T/C (dose: 12.0 mg/kg/injection, schedule: Q01DX007 (ip), vehicle: water) is reported as 21 % of control.

With `CCSCCC(N)C(=O)O` (stereo unspecified) the T/C (dose: 9.37 mg/kg/injection, schedule: Q#A X014 (ip), vehicle: carboxymethylcellulose (CMC)) was 80 % of control, the T/C (dose: 18.2 mg/kg/injection, schedule: Q01DX007 (ip), vehicle: carboxymethylcellulose (CMC)) was 115 % of control and the T/C (dose: 18.75 mg/kg/injection, schedule: Q#A X014 (ip), vehicle: carboxymethylcellulose (CMC)) was 116 % of control. The T/C [2] was 102 % of control, the T/C (dose: 36.3 mg/kg/injection, schedule: Q01DX007 (ip), vehicle: carboxymethylcellulose (CMC)) was 98 % of control and the T/C (dose: 37.5 mg/kg/injection, schedule: Q#A X014 (ip), vehicle: carboxymethylcellulose (CMC)) was 40 % of control. The T/C (dose: 50.0 mg/kg/injection, schedule: Q01DX007 (ip), vehicle: carboxymethylcellulose (CMC)) was 80 % of control, the T/C (dose: 72.5 mg/kg/injection, schedule: Q01DX007 (ip), vehicle: carboxymethylcellulose (CMC)) was 77 % of control and the T/C (dose: 75.0 mg/kg/injection, schedule: Q#A X014 (ip), vehicle: carboxymethylcellulose (CMC)) was 36 % of control. The T/C (dose: 90.0 mg/kg/injection, schedule: Q01DX007 (ip), vehicle: carboxymethylcellulose (CMC)) was 106 % of control, the T/C [3] was 111 % of control and the T/C (dose: 108.0 mg/kg/injection, schedule: Q01DX007 (ip), vehicle: carboxymethylcellulose (CMC)) was 98 % of control. For the same compound, the T/C (dose: 145.0 mg/kg/injection, schedule: Q01DX007 (ip), vehicle: carboxymethylcellulose (CMC)) was 108 % of control, the T/C (dose: 216.0 mg/kg/injection, schedule: Q01DX007 (ip), vehicle: carboxymethylcellulose (CMC)) was 107 % of control and the T/C (dose: 432.0 mg/kg/injection, schedule: Q01DX007 (ip), vehicle: carboxymethylcellulose (CMC)) was 47 % of control.

`C/C=C(/C)C(=O)O[C@H]1CCN2CC=C(COC(=O)[C@@](O)([C@H](C)OC)C(C)(C)O)[C@H]12` was tested, and the T/C (dose: 12.0 mg/kg/injection, schedule: Q01DX007 (ip), vehicle: carboxymethylcellulose (CMC)) was 117 % of control, the T/C (dose: 18.0 mg/kg/injection, schedule: Q01DX007 (ip), vehicle: carboxymethylcellulose (CMC)) was 73 % of control and the T/C (dose: 26.6 mg/kg/injection, schedule: Q01DX007 (ip), vehicle: carboxymethylcellulose (CMC)) was 48 % of control. The T/C (dose: 40.0 mg/kg/injection, schedule: Q01DX007 (ip), vehicle: carboxymethylcellulose (CMC)) was 40 % of control.

`CC(=O)OCC(=O)[C@@]1(O)CC[C@H]2[C@@H]3C[C@H](C)C4=CC(=O)C=C[C@]4(C)[C@H]3[C@@H](O)C[C@@]21C` was tested, and the T/C (dose: 7.5 mg/kg/injection, schedule: Q01DX007 (sc), vehicle: steriod suspending solution) was 122 % of control, the T/C [4] was 59 % of control and the T/C (dose: 11.3 mg/kg/injection, schedule: Q01DX007 (sc), vehicle: steriod suspending solution) was 93 % of control. The T/C (dose: 20.0 mg/kg/injection, schedule: Q01DX007 (sc), vehicle: steriod suspending solution) was 55 % of control, the T/C (dose: 27.0 mg/kg/injection, schedule: Q01DX007 (sc), vehicle: steriod suspending solution) was 41 % of control and the T/C (dose: 40.0 mg/kg/injection, schedule: Q01DX007 (sc), vehicle: steriod suspending solution) was 34 % of control. The T/C (dose: 44.4 mg/kg/injection, schedule: Q01DX007 (sc), vehicle: steriod suspending solution) was 26 % of control, the T/C (dose: 66.6 mg/kg/injection, schedule: Q01DX007 (sc), vehicle: steriod suspending solution) was 39 % of control and the T/C (dose: 100.0 mg/kg/injection, schedule: Q01DX007 (sc), vehicle: steriod suspending solution) was 40 % of control.

`COc1ccc(C[C@H](N)C(=O)NC2C(CO)OC(n3cnc4c(N(C)C)ncnc43)C2O)cc1` (stereo partly specified) was tested, and the T/C (dose: 12.5 mg/kg/injection, schedule: Q#A X014 (ip), vehicle: carboxymethylcellulose (CMC)) was 106 % of control, the T/C (dose: 13.12 mg/kg/injection, schedule: Q01DX007 (ip), vehicle: carboxymethylcellulose (CMC)) was 65 % of control and the T/C (dose: 26.25 mg/kg/injection, schedule: Q01DX007 (ip), vehicle: carboxymethylcellulose (CMC)) was 105 % of control. For the same compound, the T/C (dose: 52.5 mg/kg/injection, schedule: Q01DX007 (ip), vehicle: carboxymethylcellulose (CMC)) was 66 % of control and the T/C [1] was 80 % of control.

With `CC(NC(=O)C1(N)CCCC1)C(=O)O` (stereo unspecified) the T/C [2] was 91 % of control, the T/C [3] was 21 % of control and the T/C (dose: 222.0 mg/kg/injection, schedule: Q01DX007 (ip), vehicle: steriod suspending solution) was 36 % of control. For the same compound, the T/C (dose: 333.0 mg/kg/injection, schedule: Q01DX007 (ip), vehicle: steriod suspending solution) was 25 % of control.

With `CC(=O)C1=C(O)C2(O)C(=O)c3c(c(C)c4ccc(C)c(O)c4c3O)CC2C(N)C1=O` (stereo unspecified) the T/C (dose: 18.8 mg/kg/injection, schedule: Q01DX007 (ip), vehicle: saline) was 114 % of control, the T/C (dose: 37.5 mg/kg/injection, schedule: Q01DX007 (ip), vehicle: saline) was 112 % of control and the T/C (dose: 75.0 mg/kg/injection, schedule: Q01DX007 (ip), vehicle: saline) was 81 % of control. The T/C (dose: 150.0 mg/kg/injection, schedule: Q01DX007 (ip), vehicle: saline) was 104 % of control.

In the case of `Clc1ccc2c(Cl)ncnc2c1`, the T/C (dose: 22.0 mg/kg/injection, schedule: Q#A X014 (ip), vehicle: methylcellulose (MC)) is reported as 58 % of control and 64 % of control, the T/C (dose: 22.5 mg/kg/injection, schedule: Q#A X014 (ip), vehicle: methylcellulose (MC)) is reported as 80 % of control and the T/C (dose: 33.0 mg/kg/injection, schedule: Q#A X014 (ip), vehicle: methylcellulose (MC)) is reported as 57 % of control and 65 % of control. For the same compound, the T/C (dose: 33.5 mg/kg/injection, schedule: Q#A X014 (ip), vehicle: methylcellulose (MC)) was 51 % of control, the T/C (dose: 50.0 mg/kg/injection, schedule: Q#A X014 (ip), vehicle: methylcellulose (MC)) was 42 % of control and 48 % of control and 64 % of control and the T/C (dose: 75.0 mg/kg/injection, schedule: Q#A X014 (ip), vehicle: methylcellulose (MC)) was 21 % of control.

In the case of `C[C@]12C=CC(=O)C=C1CC[C@@H]1[C@@H]2CC[C@]2(C)OC(=O)CC[C@@H]12`, the T/C (dose: 250.0 mg/kg/injection, schedule: Q01DX007 (sc), vehicle: steriod suspending solution) is reported as 74 % of control and 99 % of control and the T/C (dose: 500.0 mg/kg/injection, schedule: Q01DX007 (sc), vehicle: steriod suspending solution) is reported as 83 % of control and 105 % of control.

In the case of `CC(=O)[C@@]1(O)[C@H](C)C[C@H]2[C@@H]3C=C(C)C4=Cc5c(cnn5-c5ccccc5)C[C@]4(C)[C@H]3[C@@H](O)C[C@@]21C`, the T/C (dose: 0.11 mg/kg/injection, schedule: Q01DX007 (sc), vehicle: steriod suspending solution) is reported as 95 % of control, the T/C (dose: 0.17 mg/kg/injection, schedule: Q01DX007 (sc), vehicle: steriod suspending solution) is reported as 84 % of control and the T/C (dose: 0.75 mg/kg/injection, schedule: Q01DX007 (sc), vehicle: steriod suspending solution) is reported as 22 % of control and 42 % of control. The T/C (dose: 1.0 mg/kg/injection, schedule: Q01DX007 (sc), vehicle: steriod suspending solution) was 21 % of control, the T/C (dose: 2.0 mg/kg/injection, schedule: Q01DX007 (sc), vehicle: steriod suspending solution) was 23 % of control and the T/C (dose: 4.0 mg/kg/injection, schedule: Q01DX007 (sc), vehicle: steriod suspending solution) was 9 % of control.

`COc1ccc2c(c1)CC[C@@H]1[C@@H]2CC[C@]2(C)[C@H](O)[C@H](O)C[C@@H]12` was tested, and the T/C (dose: 0.5 mg/kg/injection, schedule: Q01DX007 (sc), vehicle: steriod suspending solution) was 117 % of control, the T/C (dose: 1.25 mg/kg/injection, schedule: Q01DX007 (sc), vehicle: steriod suspending solution) was 81 % of control and the T/C (dose: 2.5 mg/kg/injection, schedule: Q01DX007 (sc), vehicle: steriod suspending solution) was 66 % of control and 90 % of control. For the same compound, the T/C (dose: 5.0 mg/kg/injection, schedule: Q01DX007 (sc), vehicle: steriod suspending solution) was 60 % of control and the T/C [4] was 61 % of control.

For `Cc1cc(N(CCCl)CCCl)ccc1C=Nc1ccccc1-c1ccccc1`, the T/C (dose: 25.0 mg/kg/injection, schedule: Q01DX007 (ip), vehicle: saline) was 100 % of control, the T/C (dose: 50.0 mg/kg/injection, schedule: Q01DX007 (ip), vehicle: saline) was 96 % of control and the T/C (dose: 100.0 mg/kg/injection, schedule: Q01DX007 (ip), vehicle: saline) was 105 % of control. The T/C (dose: 200.0 mg/kg/injection, schedule: Q01DX007 (ip), vehicle: saline) was 73 % of control.

With `CCCCCCCCCCCCNCCCCCCCCCCCC` the T/C (dose: 2.5 mg/kg/injection, schedule: Q01DX007 (ip), vehicle: water) was 107 % of control, the T/C (dose: 5.0 mg/kg/injection, schedule: Q01DX007 (ip), vehicle: water) was 54 % of control and the T/C (dose: 7.5 mg/kg/injection, schedule: Q01DX007 (ip), vehicle: water) was 60 % of control. For the same compound, the T/C (dose: 10.0 mg/kg/injection, schedule: Q01DX007 (ip), vehicle: water) was 44 % of control.
